Data on eight compounds can be found in patent US6875578B2, “System for cell-based screening” (priority 1997, dated 2005).

“Also recorded” adds a separate entry of the source.

The test system of experiment [1] is p38 MAPK and NF-κB pathways. Put plainly: Dual labeling assay of the p38 MAPK and NF-κB pathways. The format is cell-based. Particulars: added alone; two different cell types. From the text: The assay we present here measures, as one of its parameters, p38 activation using immunolocalization of the phosphorylated form of p38 in toxin-treated cells. The assay was developed to be flexible enough to include the simultaneous measurement of other parameters within the same individual cells. Because the signal transduction pathway mediated by the transcription factor NF-κB is also known to be involved in the cell stress response, we included the activation of NF-κB as a second parameter in the same assay.
Multiple cell types, model toxins, and antibodies were tested, and significant stimulation of both pathways was measured in a high-content mode. The phospho-p38 antibodies used in this study were purchased from Sigma Chemical Company (St. Louis, Mo.). We report that at least two cell stress signaling pathways can not only be measured simultaneously, but are differentially responsive to classes of model toxins.

In experiment [2] the test system is microtubule arrays (tubulin-GFP chimera). Put plainly: Microtubule disruption assay, LLCPK cells with tubulin-GFP biosensor. The conditions noted are these: 10-500 nM, 12 hour time point. The format is cell-based, pig. On the procedure:
For microtubule disruption assays, LLCPK cells stably transfected with a tubulin-GFP biosensor plasmid were plated on 96 well cell culture dishes at 50-60% confluence and cultured overnight at 37° C., 5% CO2. […] The cells were then observed with the cell screening system described above, at a 12 hour time point.

The subject of experiment [3] is caspase-3. Nature of the experiment: Caspase-3 biosensor apoptosis assay, BHK cells. The format is cell-based. The conditions noted are these: BHK cells transfected with the caspase 3 biosensor. On the procedure: (§1) For DNA transfection, BHK cells and MCF-7 cells were cultured to 50-70% confluence in 6 well plates containing 3 ml of minimal Eagle's medium (MEM) with 10% fetal calf serum, 1 mM L-glutamine, 50 μg/ml streptomycin, 50 μg/ml penicillin, 0.1 mM non-essential amino acids, 1 mM sodium pyruvate and 10 μg/ml of bovine insulin (for MCF-7 cell only) at 37° C. in a 5% CO2 incubator for about 36 hours. The cells were washed with serum free MEM media and incubated for 5 hours with 1 ml of transfection mixture containing 1 μg of the appropriate plasmid and 4 μg of lipofectimine (BRL) in the serum free MEM media. Subsequently, the transfection medium was removed and replaced with 3 ml of normal culture media. The transfected cells were maintained in growth medium for at least 16 hours before performing selection of the stable cells based on standard molecular biology methods (Ausubel. et al 1995).
For apoptosis assays, the cells (BHK, MCF-7) stably transfected with the appropriate protease biosensor expression vector were plated on tissue culture treated 96-well plates at 50-60% confluence and cultured overnight at 37° C., 5% CO2. […]
(§2) The biosensor response is measured by quantitating the effective cytoplasm-to-nuclear translocation of the signal (see above). […]

In experiment [4] the test system is L929 cells. Nature of the experiment: Apoptosis actin reorganization (f-actin content), L929 cells. The format is cell-based, mouse. Particulars: 30 hours. How it is done: (§3) Cells were plated in 96-well plates at densities of 3×10^3 to 1×10^4 cells/well. The following day apoptotic inducers were added at indicated concentrations. Cells were incubated for the indicated time periods (usually 16-30 hours). The next day the medium was removed and cells were stained with 5 μg/ml Hoechst (Molecular Probes, Inc.) in fresh medium and incubated for 30 minutes at […]. Cells were washed in HBSS and fixed with 3.7% formaldehyde in HBSS at room temperature. Plates were washed with HBSS and permeabilized with 0.5% v/v Triton X-100 in HBSS at room temperature. Plates were washed in HBSS and stained with 100 μl of 1 U/ml of Alexa 488 Phalloidin stock (100 μl/well, Molecular Probes, Inc.). Cells were washed 2×with HBSS at RT and the plate was sealed.
(§4) Quantitation of f-actin content was accomplished by measuring the intensity of phalloidin staining around the nucleus. This was determined to be a reasonable approximation of a full cytoplasmic average of the intensity. The mask used to approximate this cytoplasmic measure was derived from the nuclear mask defined by the Hoechst stain. Derivation was accomplished by combinations of erosions and dilations.

Experiment [5] has as its system L929 cells. Put plainly: Apoptosis mitochondrial mass/potential, L929 cells. In kind it is cell-based, mouse. Particulars: 30 hours. How it is done: (§5) Cells were plated into 96-well plates at densities of 3×10^3 to 1×10^4 cells/well. The following day apoptotic inducers were added at the indicated concentrations and cells were incubated for the indicated time periods (usually 16-30 hours). Cells were stained with 5 μg/ml Hoechst (Molecular Probes, Inc.) and 750 nM MITOTRACKER™ Red (CMXRos, Molecular Probes, Inc.) in fresh medium and incubated for 30 minutes at 37° C. Cells were washed in HBSS and fixed with 3.7% formaldehyde in HBSS at room temperature. Plates were washed with HBSS and permeabilized with 0.5% v/v TRITON™ X-100 in HBSS at room temperature. Cells were washed 2× with HBSS at room temperature and the plate was sealed. For dual labeling of mitochondria, cells were treated with 200 nM MITOTRACKER™ Green and 200 nM MITOTRACKER™ Red for 0.5 hours before fixation.
(§6) The mitochondrial membrane potential is measured by labeling mitochondria with both MITOTRACKER™ Green FM and MITOTRACKER™ Red (Molecular Probes, mc). MITOTRACKER™ Red labeling is proportional to both mass and membrane potential. MITOTRACKER™ Green FM labeling is proportional to mass. The ratio of MITOTRACKER™ Red signal to the MITOTRACKER™ Green FM signal provides a measure of mitochondrial membrane potential (Poot and Pierce, 1999). This ratio normalizes the […]. […]

In experiment [6] the test system is BHK cells. Nature of the experiment: Apoptosis actin reorganization (f-actin content), BHK cells. Particulars: 30 hours. In kind it is cell-based. On the procedure:
as §3, §4

Experiment [7] relates to BHK cells. Nature of the experiment: Apoptosis nuclear morphology, BHK cells. The format is cell-based. The conditions noted are these: 30 hours. How it is done:
(§7) Cells were plated into 96-well plates at densities of 3×10^3 to 1×10^4 cells/well. The following day apoptotic inducers were added at indicated concentrations and cells were incubated for indicated time periods (usually 16-30 hours). The next day medium was removed and cells were stained with 5 μg/ml Hoechst (Molecular Probes, Inc.) in fresh medium and incubated for 30 minutes at 37° C. Cells were washed in Hank's Balanced Salt Solution (HBSS) and fixed with 3.7% formaldehyde in HBSS at room temperature. Cells were washed 2×with HBSS at room temperature and the plate was sealed.
(§8) Quantitation of changes in nuclear morphology upon induction of apoptosis was accomplished by (1) measuring the effective size of the nuclear region; and (2) measuring the degree of convolution of the perimeter.

Experiment [8] deals with MCF-7 cells. Nature of the experiment: Apoptosis nuclear morphology, MCF-7 cells. The format is cell-based. Particulars: 30 hours. How it is done: as §7, §8
For experiment [9], the system named is BHK cells. Put plainly: Apoptosis mitochondrial mass/potential, BHK cells. Particulars: 30 hours. The format is cell-based. How it is done:
as §5, §6

Experiment [10] concerns caspase-3. Put plainly: Caspase-3 biosensor apoptosis assay, MCF-7 cells. Particulars: MCF-7 cells; maximum magnitude. In kind it is cell-based. How it is done:
as §1
For apoptosis assays, the cells (BHK, MCF-7) stably transfected with the appropriate protease biosensor expression vector were plated on tissue culture treated 96-well plates at 50-60% confluence and cultured overnight at 37° C., 5% CO2. Varying concentrations of cis-platin, staurosporine, or paclitaxel in normal culture media were freshly prepared from stock and added to cell culture dishes to replace the old culture media. The cells were then observed with the cell screening system of the present invention at the indicated time points either as live cell experiments or as fixed end-point experiments.
This biosensor is restricted to the cytoplasm by the reactant target sequence. The reactant target sequence is the annexin II cytoskeletal binding domain ([…]) (SEQ ID NO:124) (FIG. 29C) (Eberhard et al. 1997. Mol. Biol. Cell 8:293a). The enzyme recognition site corresponds to two copies of the amino acid sequence DEVD (SEQ ID NO:60) (FIG. 29B), which serves as the recognition site of caspase-3. […]
as §2

Experiment [11] concerns L929 cells. Nature of the experiment: Apoptosis nuclear morphology, L929 cells. In kind it is cell-based, mouse. The conditions noted are these: 30 hours. How it is done:
as §7, §8

For experiment [12], the system named is MCF-7 cells. Nature of the experiment: Apoptosis actin reorganization (f-actin content), MCF-7 cells. In kind it is cell-based. Particulars: 30 hours. How it is done: as §3, §4
Experiment [13] concerns MCF-7 cells. Put plainly: Apoptosis mitochondrial mass/potential, MCF-7 cells. In kind it is cell-based. Particulars: 30 hours. How it is done:
as §5, §6

The subject of experiment [14] is NF-κB. Nature of the experiment: NF-κB immunolocalization in toxin treated 3T3 cells. In kind it is cell-based. The text has this: (§9) For further studies, we characterized endogenous NF-κB activation by immunolocalization in toxin treated cells. The NF-κB antibodies used in this study were purchased from Santa Cruz Biotechnology, Inc. (Santa Cruz, Calif.), and secondary antibodies are from Molecular Probes (Eugene, Oreg.).
(§10) For the 3T3 and SNB19 cell types, we determined the effective concentrations that yield response levels of 50% of the maximum (EC50), expressed in units of mass per volume (ng/ml) and units of molarity. Based on molecular weights of 17 kD for both TNFα and IL-1α, the EC50 levels for these two compounds with 3T3 and SNB19 cell types are given in units of molarity in Table 1.
(§11) For these experiments, either 10 or 100 TNFα-treated 3T3 or SNB19 cells/well were tested. On the basis of the standard deviations measured for these samples, and by taking t-values for the student's t-test, we have estimated the minimum detectable doses for each case of cell type, compound, number of cells per well, and for different choices of how many wells are sampled per condition. The latter factor determines the number of degrees of freedom that are provided in the sample of data. Increasing the number of wells from 4 to 16, and increasing the number of cells per well from 10 to 100, improves the minimum detectable doses considerably. […] If the false positive rate is relaxed to 20%, a concentration of approximately half that value can be detected (0.83 ng/ml). One hundred cells can conveniently be sampled over a cell culture surface area of less than 1 mm^2.

Experiment [15] concerns NF-κB. Nature of the experiment: NF-κB immunolocalization in toxin treated SNB19 cells. The format is cell-based. Particulars: based on molecular weights of 17 kD, read-out: EC50 (NF-κB activation).
Excerpt: as §9, §10
as §11, with “data.” for “data. Increasing the number of wells from 4 to 16, and increasing the number of cells per well from 10 to 100, improves the minimum detectable doses considerably.”, “One hundred cells can conveniently be sampled over a cell culture surface area of less than 1 mm^2.” left out

As to `COc1ccc(C[C@H]2NC[C@H](O)[C@H]2OC(C)=O)cc1` [Anisomycin], the “differential response of the p38 MAPK and NF-κB pathways” value (from here on “differential response”) in experiment [1] is reported as “activators of specific pathways”.

Take `C=CC[C@@H](CC/C(C)=C/C=C/CC/C=C\[C@@H]1CSC([C@@H]2C[C@@H]2C)=N1)OC` [Curacin A]: the “Response of microtubule arrays” value in experiment [2] is “Destabilization”.

As for `COC(=O)Nc1nc2ccc(C(=O)c3cccs3)cc2[nH]1` [Nocodazole], in experiment [2], the “Response of microtubule arrays” value is “Destabilization”.

Regarding `CC[C@]1(O)C[C@@H]2CN(CCc3c([nH]c4ccccc34)[C@@](C(=O)OC)(c3cc4c(cc3OC)N(C)[C@H]3[C@@](O)(C(=O)OC)[C@H](OC(C)=O)[C@]5(CC)C=CCN6CC[C@]43[C@@H]65)C2)C1` [Vinblastine], the “Response of microtubule arrays” value in experiment [2] was “Destabilization”.

In the case of `N.N.[Cl][Pt][Cl]` [cis-platin], in the experiment on caspase-3 [3], the “caspase activation reported by the biosensor” value was “accumulation of fluorescence in the nucleus”.

For `CN[C@@H]1C[C@H]2O[C@@](C)([C@@H]1OC)n1c3ccccc3c3c4c(c5c6ccccc6n2c5c31)C(=O)NC4` [staurosporine], the “change in peri-nuclear f-actin content” value in the experiment on L929 cells [4] is “dose-dependent increases in f-actin content”; in the experiment with L929 cells [4] (listed as Staurosporine) it was “induced increases in f-actin”; in the experiment on BHK cells [6], “dose-dependent increase in f-actin”; with BHK cells [6] (listed as Staurosporine), “induced increases in f-actin”; in the experiment on MCF-7 cells [12], “either a decrease or increase depending on the concentration of staurosporine”; in the experiment on MCF-7 cells [12] (listed as Staurosporine) it was “concentration-dependent response”. In addition, the “mitochondrial changes (mass / membrane potential)” value is reported as “clear increase in mitochondrial mass; also recorded: increases in mitochondrial mass” with L929 cells [5]; “either a decrease in membrane potential at lower concentrations of staurosporine, or an increase in mass at higher concentrations of staurosporine; also recorded: increases in mitochondrial mass” with BHK cells [9]; “consistent decrease in mitochondrial membrane potential; also recorded: a decrease in membrane potential” in the experiment with MCF-7 cells [13]. Further, the “change in nuclear morphology” value in the experiment with BHK cells [7] was “concentration dependent changes”; in the experiment on BHK cells [7] (listed as Staurosporine) it was “nuclear condensation at lower doses and nuclear fragmentation at higher doses”; in the experiment on MCF-7 cells [8], “nuclear condensation”; in the experiment on L929 cells [11], “dose-dependent change in nuclear morphology”; in the experiment on L929 cells [11] (listed as Staurosporine), “classic nuclear fragmentation”. Moreover, the “magnitude of caspase activation relative to comparator” value in the experiment with caspase-3 [10] was “approximately one-half that demonstrated with cis-platin in BHK cells”.

The EC50 is the concentration at which the effect is half-maximal. Turning to “IL-1α: model toxin, molecular weight 17 kD”, in experiment [1], the “differential response” value was “activators of specific pathways”. Also, the “EC50 (NF-κB activation)” value in the experiment with NF-κB [14] (based on molecular weights of 17 kD) was 0.24 10^−12 moles/liter. For the same compound, the EC50 in the experiment on NF-κB [15] is 59 pM.

As for tumor necrosis factor [TNFα], the “differential response” value in experiment [1] was “activators of specific pathways”. In addition, in the experiment on NF-κB [14], the “EC50 value (NF-κB activation)” value is 0.15 ng/mL. For the same compound, the EC50 was 8.8 pM with NF-κB [14] (based on molecular weights of 17 kD, read-out: EC50 (NF-κB activation)) and 5.9 pM in the experiment on NF-κB [15].
